Measured values as given in the NIST ThermoML archive (doi:10.1021/je700648c).
Several values for one entry are separate records, joined by “and”; a condition that tells them apart may be missing. Equal entries are not always repeated. ± gives the expanded uncertainty stated by the source.

Key:
[1] = xn = mol fraction of the nth substance listed; details: 101 kPa, Liquid
[2] = 101 kPa, Liquid

CCn1cc[n+](C)c1.COCCOCCOS(=O)(=O)[O-] [1-ethyl-3-methylimidazolium 2-(2-methoxyethoxy) ethylsulfate] + CO
[1], 298.15 K
Details	speed of sound [m/s]
x2 = 0.1791	1677.6 ± 3.4
x2 = 0.356	1647 ± 3.8
x2 = 0.4548	1620 ± 4
x2 = 0.5356	1597.2 ± 4.2
x2 = 0.6298	1563.6 ± 4.5
x2 = 0.7412	1499.4 ± 4.8
x2 = 0.7987	1453.2 ± 4.9
x2 = 0.8527	1387.5 ± 5
x2 = 0.9011	1324.8 ± 5.2
x2 = 0.9298	1270.8 ± 5.2
x2 = 0.962	1201.2 ± 5.3
x2 = 0.9829	1158 ± 5.4

CC(C)=O [acetone]
[2]
Details	mass density [kg/m3]
298.15 K	784.1 ± 1.2
303.15 K	778.4 ± 1.2
313.15 K	766.9 ± 1.2

CC(C)=O [acetone] + CCn1cc[n+](C)c1.O=S(=O)([N-]S(=O)(=O)C(F)(F)C(F)(F)F)C(F)(F)C(F)(F)F
[1], x1 = 1
Details	mass density [kg/m3]
298.15 K	784.1 ± 1.2
303.15 K	778.4 ± 1.2
313.15 K	766.9 ± 1.2

CCn1cc[n+](C)c1.O=S(=O)([N-]S(=O)(=O)C(F)(F)C(F)(F)F)C(F)(F)C(F)(F)F + CO
mass density [kg/m3], [1]
Details	x2 = 0	x2 = 0.0584	x2 = 0.1116	x2 = 0.1686	x2 = 0.2956	x2 = 0.5104	x2 = 0.6083	x2 = 0.706	x2 = 0.8237	x2 = 0.9033
298.15 K	1593.2 ± 4.2	1586.2 ± 4.5	1579.4 ± 4.8	1571.3 ± 5.2	1549.7 ± 6.1	1494.6 ± 7.6	1455.3 ± 8.2	1398.9 ± 8.5	1285.9 ± 8.2	1148.2 ± 7
303.15 K	1587.6 ± 4.1	1580.5 ± 4.5	1573.7 ± 4.8	1565.6 ± 5.2	1544 ± 6	1488.9 ± 7.5	1449.6 ± 8.1	1393.2 ± 8.4	1280.2 ± 8.1	1142.6 ± 6.9
313.15 K	1576.7 ± 4.1	1569.5 ± 4.4	1562.6 ± 4.7	1554.5 ± 5.1	1532.8 ± 5.9	1477.7 ± 7.4	1438.3 ± 8	1382 ± 8.3	1269.3 ± 7.9	1132 ± 6.7

CCn1cc[n+](C)c1.O=S(=O)([N-]S(=O)(=O)C(F)(F)C(F)(F)F)C(F)(F)C(F)(F)F + CC(C)=O
mass density [kg/m3], [1]
Details	298.15 K	303.15 K	313.15 K
x2 = 0	1593.2 ± 4.2	1587.3 ± 4.1	1576.7 ± 4.1
x2 = 0.0807	1576.8 ± 3.8	1571.1 ± 3.7	1560.2 ± 3.7
x2 = 0.1417	1563.1 ± 3.5	1557.4 ± 3.5	1546.4 ± 3.4
x2 = 0.2521	1534.6 ± 3	1528.8 ± 3	1517.7 ± 2.9
x2 = 0.2791	1526.6 ± 2.9	1520.8 ± 2.9	1509.6 ± 2.8
x2 = 0.415	1479.2 ± 2.4	1473.3 ± 2.4	1462.2 ± 2.3
x2 = 0.5195	1431.8 ± 2	1425.8 ± 2	1414.8 ± 2
x2 = 0.5676	1405.5 ± 1.9	1399.5 ± 1.9	1388.4 ± 1.8
x2 = 0.7092	1303.1 ± 1.5	1297.2 ± 1.5	1285.7 ± 1.4
x2 = 0.755	1258.2 ± 1.4	1252.2 ± 1.3	1240.8 ± 1.3
x2 = 0.8137	1188.4 ± 1.2	1182.5 ± 1.2	1170.8 ± 1.1
x2 = 0.8927	1062 ± 0.9	1055.9 ± 0.9	1044.3 ± 0.9
x2 = 0.9502	935 ± 0.9	929.1 ± 0.9	917.6 ± 0.9

CCn1cc[n+](C)c1.O=S(=O)([N-]S(=O)(=O)C(F)(F)C(F)(F)F)C(F)(F)C(F)(F)F
[2]
Details	mass density
298.15 K	1593.2 ± 4.2 kg/m3
303.15 K	1587.6 ± 4.1 kg/m3 and 1587.3 ± 4.1 kg/m3
313.15 K	1576.7 ± 4.1 kg/m3

CO [methanol] + CCn1cc[n+](C)c1.O=S(=O)([N-]S(=O)(=O)C(F)(F)C(F)(F)F)C(F)(F)C(F)(F)F
[1], x1 = 1
Details	mass density [kg/m3]
298.15 K	786.6 ± 4.2
303.15 K	781.9 ± 4.2
313.15 K	772.6 ± 4.2
